What was measured:
calpain 1 [1] = biological target: T1, calpain 1 (Homo sapiens, UniProt P07384); experiment: Change in fluorescence intensity of candidate enzymes using inhibitors; assay type: biochemical; details: candidate enzyme calpain 1
T1 sequence (P07384 1-714): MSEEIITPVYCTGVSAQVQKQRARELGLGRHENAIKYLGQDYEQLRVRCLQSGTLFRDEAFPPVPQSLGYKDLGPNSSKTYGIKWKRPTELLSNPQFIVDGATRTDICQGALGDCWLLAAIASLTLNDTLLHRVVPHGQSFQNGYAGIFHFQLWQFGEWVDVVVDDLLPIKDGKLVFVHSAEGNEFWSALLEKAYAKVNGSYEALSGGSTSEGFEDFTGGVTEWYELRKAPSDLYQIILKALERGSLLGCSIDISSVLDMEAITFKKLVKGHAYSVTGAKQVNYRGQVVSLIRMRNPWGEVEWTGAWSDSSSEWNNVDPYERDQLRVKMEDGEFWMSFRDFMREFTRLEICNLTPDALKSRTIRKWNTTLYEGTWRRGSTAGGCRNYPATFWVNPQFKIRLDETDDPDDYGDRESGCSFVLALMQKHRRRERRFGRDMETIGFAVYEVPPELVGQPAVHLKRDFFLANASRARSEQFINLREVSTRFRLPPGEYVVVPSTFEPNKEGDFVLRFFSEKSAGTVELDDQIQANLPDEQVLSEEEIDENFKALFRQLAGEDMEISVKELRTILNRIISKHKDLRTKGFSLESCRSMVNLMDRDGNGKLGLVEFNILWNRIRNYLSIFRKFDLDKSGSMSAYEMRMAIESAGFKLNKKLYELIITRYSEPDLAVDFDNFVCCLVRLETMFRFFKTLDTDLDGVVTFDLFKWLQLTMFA
T1 sequence (P04632 1-268 partner): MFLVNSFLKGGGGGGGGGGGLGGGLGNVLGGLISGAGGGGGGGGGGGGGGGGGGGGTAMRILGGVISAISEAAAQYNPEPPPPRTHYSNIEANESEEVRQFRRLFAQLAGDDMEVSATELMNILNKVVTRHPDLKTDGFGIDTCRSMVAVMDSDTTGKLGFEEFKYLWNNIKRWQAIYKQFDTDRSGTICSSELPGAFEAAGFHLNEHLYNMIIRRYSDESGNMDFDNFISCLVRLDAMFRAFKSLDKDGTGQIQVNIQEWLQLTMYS

cathepsin D [2] = biological target: T2, cathepsin D (Homo sapiens, UniProt P07339); experiment: as above; assay type: biochemical; details: candidate enzyme cathepsin D
[3] = test system: fresh glioblastoma and peritumoral tissue; experiment: Screening by fluorescent probe on fresh glioblastoma and peritumoral tissue specimens; details: for tumor-specific fluorescent labeling as compared with the surrounding tissue: 50 μM probe solution in PBS, 0.5% v/v DMSO, Ex 465 nm, Em 515 nm, FIGS. 1 and 2; for fluorescence intensity in the tumor: 50 μM probe solution
Protocol: The fluorescent intensity of fresh glioblastoma and peritumoral tissue were compared using the fluorescent probes YK190, YK213, YK19, and YK281 synthesized in Example 1. As a comparative example, hydroxymethyl rhodamine green (HRMG) having no dipeptide site was used.
50 μM probe solutions (200 μL) in PBS, containing 0.5% v/v DMSO as a co-solvent was added dropwise to each specimen, and the fluorescence intensity was measured over time using Maestro In Vivo Imaging System Ex. • Excitation wavelength: 465 nm • Emission wavelength: 515 nm

[4] = test system: calpain 1 knocked down in U87 glioblastoma cell line; experiment: Verification by siRNA knock-down using U87 cell line; assay type: cell-based; details: calpain 1 knocked down by siRNA, 48 hours culture; FIG. 5
Protocol: (§1) Calpain 1 and cathepsin D were knocked down by siRNA in a cell line, and a reaction with the fluorescent probe YK190 was observed. The experiment was conducted in accordance with the procedure shown below.
(§2) Transfection of U87, a glioblastoma cell line, was done with siRNA utilizing lipofectamine. A reaction with a fluorescent probe was observed after culture for 48 hours.

[5] = test system: cathepsin D knocked down in U87 glioblastoma cell line; experiment: as above; assay type: cell-based; details: 48 hours culture, FIG. 5
Protocol: as §1, §2

calpain 1 [6] = biological target: T1, calpain 1; experiment: Reaction of fluorescent probe with purified enzyme; assay type: biochemical; details: purified calpain 1; FIG. 4
cathepsin D [7] = biological target: T2, cathepsin D; experiment: Reaction of fluorescent probe with purified enzyme; assay type: biochemical; details: FIG. 4

T2 sequence (P07339 65-412, species assumed): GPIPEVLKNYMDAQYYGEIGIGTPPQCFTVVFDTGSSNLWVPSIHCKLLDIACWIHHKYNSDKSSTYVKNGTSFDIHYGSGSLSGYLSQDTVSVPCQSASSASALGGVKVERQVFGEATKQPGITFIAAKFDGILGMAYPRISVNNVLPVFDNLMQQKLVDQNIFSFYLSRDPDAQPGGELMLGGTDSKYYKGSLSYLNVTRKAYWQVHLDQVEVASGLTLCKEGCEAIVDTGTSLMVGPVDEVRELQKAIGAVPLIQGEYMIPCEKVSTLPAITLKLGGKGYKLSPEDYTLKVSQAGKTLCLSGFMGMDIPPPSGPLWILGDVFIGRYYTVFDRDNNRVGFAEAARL

COCCOCCOC(=O)N[C@@H](CC(C)C)C(=O)N[C@@H](Cc1ccccc1)C(=O)C(=O)NC1CC1 [SNJ-1945]
change in fluorescence intensity with inhibitor (calpain 1 [1]): fluorescence suppression
change in fluorescence intensity with inhibitor (cathepsin D [2]): fluorescence suppression

N[C@@H](Cc1ccc(O)cc1)C(=O)O [YK19, Tyrosine]
tumor-specific fluorescent labeling as compared with the surrounding tissue [3]: a fluorescent response was also well-obtained in a tumor-specific manner

N=C(N)NCCC[C@H](N)C(=O)O [YK190, Arginine]
fluorescence intensity compared to the control U87 cell line [4]: reduced fluorescence intensity
fluorescence intensity compared to the control U87 cell line [5]: reduced fluorescence intensity
change in fluorescence intensity by reaction with the probe (calpain 1 [6]): significant increase in fluorescence intensity
change in fluorescence intensity by reaction with the probe (cathepsin D [7]): significant increase in fluorescence intensity
tumor-specific fluorescent labeling as compared with the surrounding tissue [3]: fluorescent labeling was performed in a tumor-specific manner
fluorescence intensity in the tumor ([3]; FIG. 2): high fluorescence intensity
fluorescence intensity relative to YK213 ([3]; in the tumor, FIG. 2): about two times that of YK213

N[C@@H](Cc1c[nH]cn1)C(=O)O [YK213, Histidine]
tumor-specific fluorescent labeling as compared with the surrounding tissue [3]: fluorescent labeling was performed in a tumor-specific manner
fluorescence intensity in the tumor ([3]; FIG. 2): high fluorescence intensity
